“And” between values parts separate entries of the source, which are not always exact repeats. Equal entries are not always repeated. Where two headings read alike, the source gives them in different places.
Assays:
[1] = tested on: AI-2-mediated quorum sensing; experiment: microbe, parasite or virus in culture; type: cell-based, Vibrio harveyi; conditions: tested at least 3 times
Description: The candidate compounds identified as described in Example 1, above, were tested for their ability to inhibit AI-2 induced quorum sensing using the MM32 strain of V. harveyi. […] The V. harveyi bacteria can also emit luminescence upon AI-2 induced quorum sensing stimulation. Therefore, the ability of the “virtually” identified compounds to inhibit luminescence production in the presence of DPD and boric acid was examined.
MM32 bacteria were streak-seeded on fresh LM plates and cultured in the presence of kanamycin (50 μg/mL) and chloramphenicol (10 μg/mL). Colonies appeared after overnight incubation at 30° C. A single colony was picked up from the LM plate. This strain was grown for 16 hrs with aeration at 175 r.p.m and at 30° C. in 2 mL of Autoinducer Bioassay (AB) medium with antibiotics (kanamycin 50 μg/mL and chloramphenicol 10 μg/mL). The culture was then diluted to an OD600 0.7. This preinoculum was grown in AB-Fe medium with 1.2 mM of iron to OD600 1.0-1.1. The resulting inoculum culture was then diluted 5000-fold in fresh AB medium.
Solutions of the test compounds in AB medium were prepared in 96-well plates. To these solutions, freshly synthesized DPD (pH=7) solution was added for a final concentration of 5 μM. Boric acid was added to give a final concentration of 1 mM. After the addition of bacteria in AB medium, the micro plates were covered with a non-toxic plate sealer and incubated at 30° C. with aeration for 3-4 hrs.
In an initial round of screening, the concentration of the test compounds was fixed at 100 μg/mL (about 200-600 μM).

[2] = tested on: V. harveyi; experiment: Bacterial growth curves (doubling time); type: cell-based, Vibrio harveyi
Description: To make sure that the observed luminescence intensity changes were not due to inhibition of bacterial growth, the effect of these boronic acids on bacterial growth was also studied.

[3] = tested on: cysteines in protein; conditions: read-out: EC50, covalent modification of cysteines in protein; cited from earlier work
[4] = tested on: AI-2-mediated gene expressions; conditions: at about 323 μM; cited from earlier work
[5] = Vibrio harveyi, read-out: IC50 value, inhibition of AI-2-mediated quorum sensing (V. harveyi luminescence), V. harveyi MM32, DPD 5 μM, boric acid 1 mM
[6] = V. harveyi MM32, DPD 5 μM, boric acid 1 mM, read-out: IC50 value, inhibition of AI-2-mediated quorum sensing (V. harveyi luminescence)
[7] = compound at 125 μM, control 79.4 min

## Oc1ccccc1O [Compound 63, catechol]
[1]; [5]
  IC50: 59 ± 9 µM

## OB(O)c1cncc2ccccc12 [Compound 4-IQBA]
[1]; [6]
  IC50: 66 µM and 66.1 µM
[2]; [7]
  doubling time: 80.4 min

## CCOC(=O)CS(=O)(=O)c1cccc(Br)c1 [Compound H28]
[1]; [5]
  IC50: 162 ± 22 µM

## c1ccc2c(c1)Nc1ccccc1S2 [Compound 62, phenothiazine]
[1]; [5]
  IC50: 10 µM
[1]; read-out: IC50 value, inhibition of AI-2-mediated quorum sensing (V. harveyi luminescence), V. harveyi MM32, DPD 5 μM, boric acid 1 mM
  IC50: 10.7 ± 3.7 µM
[2]
  effect on bacterial growth: not due to growth inhibition
[2]; compound at 20 μM, control 78.9 min
  doubling time: 72.3 min

## OB(O)c1cccc2cnccc12 [Compound 5-IQBA]
[1]; [6]
  IC50: 30 µM and 30.4 µM
[2]; [7]
  doubling time: 99.2 min

## CCOC(=S)CS(=O)(=O)c1ccc(Br)cc1 [Compound H14]
[1]; [5]
  IC50: 13.8 ± 2 µM

## CC(C)OC(=S)CS(=O)(=O)c1ccccc1 [Compound 23]
[1]; [5]
  IC50: 33 ± 4 µM

## O=CC=Cc1ccccc1 [cinnamaldehyde]
[3]
  EC50: 19 µM

## Oc1cccc(O)c1O [Compound 61, pyrogallol]
[1]; [5]
  IC50: 2 µM
[2]
  effect on bacterial growth: not due to growth inhibition
[2]; compound at 5 μM, control 78.9 min
  doubling time: 78.4 min

## CCOC(=O)CS(=O)(=O)c1ccc(-c2ccc3c(c2)OCCO3)cc1 [Compound H20]
[1]; [5]
  IC50: 157 ± 43 µM

## CCOC(=O)CS(=O)(=O)c1ccc(-c2ccc(C(N)=O)cc2)cc1 [Compound H24]
[1]; [5]
  IC50: 31.3 ± 23 µM

## CCOC(=O)CS(=O)(=O)c1ccc(-c2ccc(C)cc2)cc1 [Compound H21]
[1]; [5]
  IC50: 8.2 ± 2.3 µM

## CCOC(=S)CS(=O)(=O)c1ccc(OC)cc1 [Compound H18]
[1]; [5]
  IC50: 26 ± 3.5 µM

## CCCS(=O)(=O)CC(=S)OCC [Compound H26]
[1]; [5]
  IC50: 21.6 ± 2.9 µM

## CCCCC1=C(Br)/C(=C/Br)OC1=O [(5Z)-4-bromo-5-(bromomethylene)-3-butyl-2(5H)-furanone]
[4]
  inhibition of AI-2-mediated gene expressions: inhibit many AI-2-mediated gene expressions

From patent US8653258B2, “Compositions for regulating or modulating quorum sensing in bacteria, methods of using the compounds, and methods of regulating or modulating quorum sensing in bacteria” (Georgia State University Research Foundation, Inc., priority 2007, dated 2014)
